In patent US4182712A, “5-Substituted thiadiazole ureas” (Mobil Oil Corporation, priority 1977, dated 1980):

Legend:
crops and weed species = assay: Pre- and post-emergence herbicide tests, overall (Tables III-VI); assay type: in vivo; conditions: in words
Experimental: (§1) All crop and weed species were planted individually in 3" plastic pots containing potting soil. Four seeds each of corn, cotton, and snapbeans were seeded to a depth equal to the diameter of the seed. All other species were surface seeded and sprinkled with screened soil in an amount sufficient to cover the seed. Immediately after planting, all pots were watered by sub-irrigation in greenhouse trays. Pots for the pre-emergence phase were seeded one day before treatment.
(§2) Planting dates for the post-emergence phase were varied so that all seedlings would reach the desired stage of development simultaneously. The proper stage of seedling development for treatment in the post-emergence phase is as follows:
(§3) Compounds were tested at rates of application equivalent to 8 lbs. of actual compound per acre in a spray volume of 38 gallons per acre. Spray hood constants required to deliver the above volume are as follows:
Two weeks after treatment, pre- and post-emergence injury or control was visually rated, and the results were as shown in the following tables. Pre-emergence data are provided in TABLE III and post-emergence data are provided in TABLE IV, for compounds having the formula illustrated in TABLE I. Correspondingly, pre-emergence and post-emergence data, respectively, are set forth in TABLES V AND VI, for compounds having the formula illustrated in TABLE II.

Amaranth pigweed (PW) = assay: Post-emergence herbicide test, amaranth pigweed; assay type: in vivo, Amaranthus retroflexus; conditions: 336 h, 8 lb/acre, two weeks after treatment
Experimental: as §1, §2
Pigweed and turnips: 1 or 2 true leaves above visible cotyledons.
as §3
(§4) Formulations for spray applications were prepared in 50 ml volumes with the following three components:
(§5) Formulations for the 4 lbs/acre rate were prepared by adjusting the amount of active ingredient accordingly.
(§6) Spray applications were made in a hood containing a removable belt and fixed spray nozzle. […]

Corn (CN) = assay: Post-emergence herbicide test, corn; assay type: in vivo; conditions: Zea mays, 336 h, 2 lb/acre, two weeks after treatment
Experimental: as §1, §2, §3, §4, §5
Spray applications were made in a hood containing a removable belt and fixed spray nozzle. For passage through the spray hood, one pot of each specie (pre-emergence phase) was placed on the rear half of the flat. Treatments were removed to the greenhouse after spraying. […]

Cotton (CT) = assay: Post-emergence herbicide test, cotton; assay type: in vivo, Gossypium hirsutum var. DPL smooth leaf; conditions: Gossypium hirsutum, 336 h, 2 lb/acre, two weeks after treatment
Experimental: Cotton (CT)--Gossypium hirsutum var. DPL smooth leaf
as §1, §2
Cotton: first true leaf 1" in length; expanded cotyledons.
as §3, §4, §5, §6

Row | SMILES | herbicidal effectiveness on a variety of crops and weed species (crops and weed species) | selectivity toward a certain crop or weed species (crops and weed species) | also measured
1 | CNC(=O)Nc1nnc(C(F)(F)F)s1 [Example 1, 1-Methyl-3-[5-Trifluoromethyl-2-(1,3,4-Thiadiazolyl)] Urea] | extremely effective |  | 
2 | CN(C)C(=O)Nc1nnc(C(F)(F)F)s1 [Example 2, 1,1-Dimethyl-3-[5-Trifluoromethyl-2-(1,3,4-Thiadiazolyl)] Urea] | extremely effective |  | 
3 | CSc1nnc(N(C)C(=O)N(C)C)s1 [Example 5, 1,1,3-trimethyl-3-[5-methylthio-2-(1,3,4-thiadiazolyl)] urea] | extremely effective |  | 
4 | CCNC(=O)Nc1nnc(C(F)(F)F)s1 [Example 9] |  | more selective when applied to a certain crop or weed species | 
5 | C=CCNC(=O)Nc1nnc(C(F)(F)F)s1 [Example 12] |  |  | selectivity post-emergence versus pre-emergence (crops and weed species): control post-emergence growth, while have little effect in regard to pre-emergence
6 | O=C(Nc1ccc(Cl)cc1)Nc1nnc(C(F)(F)F)s1 [Example 15] |  | more selective when applied to a certain crop or weed species | 
7 | O=C(Nc1ccc(Cl)c(Cl)c1)Nc1nnc(C(F)(F)F)s1 [Example 16] |  | more selective when applied to a certain crop or weed species | pest or weed control at 8966.8 g/ha (Amaranth pigweed (PW)): 100%
8 | Cc1nnc(NC(=O)N(C)C)s1 [Example 19] |  |  | selectivity post-emergence versus pre-emergence (crops and weed species): The converse of this relationship
9 | CCc1nnc(NC(=O)N(C)C)s1 [Example 20] |  | more selective when applied to a certain crop or weed species | 
10 | CNC(=O)Nc1nnc(CC(C)C)s1 [Example 21] |  | more selective when applied to a certain crop or weed species | 
11 | CNC(=O)Nc1nnc(COC)s1 [Example 25] |  | more selective when applied to a certain crop or weed species | 
12 | CNC(=O)Nc1nnc(SC)s1 [Example 26] | extremely effective |  | 
13 | CNC(=O)Nc1nncs1 [Example 35] |  | more selective when applied to a certain crop or weed species | 
14 | CNC(=O)N(C)c1nnc(C(F)(F)F)s1 [Example 36] | extremely effective |  | 
15 | CCN(C(=O)NC)c1nnc(C(F)(F)F)s1 [Example 37] | extremely effective |  | 
16 | CNC(=O)Nc1nnc(SCCCCl)s1 [Example 61] |  |  | pest or weed control at 2241.7 g/ha (Corn (CN)): 100%; pest or weed control at 2241.7 g/ha (Cotton (CT)): 40%
